Legend:
Assay type in all cases: cell-based
CUTLL-1 = experiment: Anti proliferative activity in haematological cancer cell lines (CellTiter Glo), CUTLL-1
Description: (§1) After 24 hours, selected compound of the present invention was added to cells from 10 mM stocks made in DMSO (Sigma Cat no. D2650). CTG reading was taken on the day of compound addition which was labelled as Day 0 reading. Each concentration of compound was tested in triplicate with DMSO concentration not exceeding a final percentage of 0.1 in the cells. After 3 days (72 hours) of incubation assay terminated using 100 μl of CellTiter Glo® reagent (Promega, Cat. no G7572). CellTiter Glo® Luminescent reagent determines the number of viable cells based on quantitation of ATP present which is an indicator of cell number and metabolically activity. Luminescence readings were taken in Victor-3 instrument. The data was analysed using graph pad prism software. Positive control (100% survival)=Cells in complete media with […]; Negative control/blank (0% survival)=Media alone containing 0.1% DMSO.

OCI-LY10 = experiment: Anti proliferative activity in haematological cancer cell lines (CellTiter Glo), OCI-LY10; settings: Homo sapiens, OCI-LY10, ABC-DLBCL, 72 hours incubation
Description: as §1

DOHH-2 = experiment: Anti proliferative activity in haematological cancer cell lines (CellTiter Glo), DOHH-2; settings: Homo sapiens, DOHH-2, Follicular lymphoma, 72 hours incubation
Description: as §1

TMD8* (wt btk) = experiment: Anti proliferative activity in haematological cancer cell lines (CellTiter Glo), TMD8; settings: Homo sapiens, ABC-DLBCL, 72 hours incubation
Description: as §1

HBL-1 = experiment: Anti proliferative activity in haematological cancer cell lines (CellTiter Glo), HBL-1; settings: HBL1, HBL-1, ABC-DLBCL, 72 hours incubation
Description: as §1

H929 = experiment: Anti proliferative activity in haematological cancer cell lines (CellTiter Glo), H929
Description: as §1

CCRF-CEM = experiment: Anti proliferative activity in haematological cancer cell lines (CellTiter Glo), CCRF-CEM
Description: as §1

OCI-LY3 cells = experiment: Anti proliferative activity in haematological cancer cell lines (CellTiter Glo), OCI-LY3
Description: as §1

Pfeiffer = experiment: Anti proliferative activity in haematological cancer cell lines (CellTiter Glo), Pfeiffer; settings: Homo sapiens, GCB-DLBCL, 72 hours incubation
Description: as §1

IC50 (CUTLL-1; CUTLL1, CUTLL-1, T-cell acute lymphoblastic leukemia, 72 hours incubation, CellTiter Glo): 0.05 µM
IC50 (OCI-LY10): 0.01 µM
IC50 (DOHH-2): 0.02 µM
IC50 (TMD8* (wt btk)): 0.01 µM
IC50 (HBL-1): 0.35 µM
IC50 (H929; Homo sapiens, NCI-H929, H929, Multiple myeloma, 72 hours incubation, CellTiter Glo): 0.05 µM
IC50 (CCRF-CEM; Homo sapiens, CCRF-CEM, T-cell acute lymphoblastic leukemia, 72 hours incubation, CellTiter Glo): 0.28 µM
IC50 (OCI-LY3 cells; Homo sapiens, OCI-LY3, ABC-DLBCL, 72 hours incubation, CellTiter Glo): 0.02 µM
IC50 (Pfeiffer): 0.87 µM
SMILES: C=CC(=O)N1CCN(C(=O)NC2(C#Cc3ccc(Cl)c(Cl)c3)CC2)CC1 [Cpd 23]
anti-proliferative activity (in words) (CUTLL-1; CUTLL-1 (T-cell acute lymphoblastic leukemia)): potent anti-proliferative activity
anti-proliferative activity (in words) (H929; H929 (multiple myeloma)): potent anti-proliferative activity
anti-proliferative activity (in words) (CCRF-CEM; CCRF-CEM (T-cell acute lymphoblastic leukemia)): potent anti-proliferative activity
anti-proliferative activity (in words) (OCI-LY3 cells; OCI-LY3 (ABC-DLBCL), activating mutation in CARD11): potent anti-proliferative activity

Source: patent US20230414605A1, “Method of Treating Cancer Using FABP5 Inhibitors” (Aurigene Oncology Limited, priority 2020, published 2023)
